This is an account of results in ChEMBL document CHEMBL5352445, “Design and synthesis of functionalized 4-aryl-Catechol derivatives as new antiinflammtory agents with in vivo efficacy” (Eur J Med Chem, 2022).

The source made the active and inactive calls. No cut-off for these calls is given here.

Experiment [1] deals with T1, Polyunsaturated fatty acid lipoxygenase ALOX12 (Homo sapiens) (UniProt P18054).
T1 sequence (whole entry): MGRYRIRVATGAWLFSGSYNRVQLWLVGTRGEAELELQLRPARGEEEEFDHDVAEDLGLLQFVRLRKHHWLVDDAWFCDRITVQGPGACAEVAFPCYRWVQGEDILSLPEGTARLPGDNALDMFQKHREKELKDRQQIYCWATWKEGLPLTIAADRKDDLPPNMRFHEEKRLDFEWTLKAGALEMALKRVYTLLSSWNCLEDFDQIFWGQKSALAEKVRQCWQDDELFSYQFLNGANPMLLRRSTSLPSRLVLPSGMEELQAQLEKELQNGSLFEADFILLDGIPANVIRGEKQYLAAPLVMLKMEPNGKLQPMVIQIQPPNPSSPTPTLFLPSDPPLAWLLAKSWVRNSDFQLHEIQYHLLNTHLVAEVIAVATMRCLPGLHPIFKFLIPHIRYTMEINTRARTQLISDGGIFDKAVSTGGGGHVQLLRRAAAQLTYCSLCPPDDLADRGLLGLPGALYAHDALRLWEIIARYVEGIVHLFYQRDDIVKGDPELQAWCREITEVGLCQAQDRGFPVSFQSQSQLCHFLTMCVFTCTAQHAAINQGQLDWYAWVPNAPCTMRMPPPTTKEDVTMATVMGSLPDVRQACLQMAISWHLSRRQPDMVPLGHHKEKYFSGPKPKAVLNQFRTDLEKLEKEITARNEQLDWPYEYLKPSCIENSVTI
The experiment can be described thus: Inhibition of 12-lipoxygenase in human PMNL cells using arachidonic acid as substrate assessed as residual activity at 10 uM preincubated with compound for 15 mins followed by A23187 and substrate addition and measured after 10 mins by HPLC analysis relative to control. The format is cell-based. Particulars: time 25.0 min.

Experiment [2] concerns the target T2, Polyunsaturated fatty acid 5-lipoxygenase (Homo sapiens, UniProt P09917).
T2 sequence (P09917 whole entry): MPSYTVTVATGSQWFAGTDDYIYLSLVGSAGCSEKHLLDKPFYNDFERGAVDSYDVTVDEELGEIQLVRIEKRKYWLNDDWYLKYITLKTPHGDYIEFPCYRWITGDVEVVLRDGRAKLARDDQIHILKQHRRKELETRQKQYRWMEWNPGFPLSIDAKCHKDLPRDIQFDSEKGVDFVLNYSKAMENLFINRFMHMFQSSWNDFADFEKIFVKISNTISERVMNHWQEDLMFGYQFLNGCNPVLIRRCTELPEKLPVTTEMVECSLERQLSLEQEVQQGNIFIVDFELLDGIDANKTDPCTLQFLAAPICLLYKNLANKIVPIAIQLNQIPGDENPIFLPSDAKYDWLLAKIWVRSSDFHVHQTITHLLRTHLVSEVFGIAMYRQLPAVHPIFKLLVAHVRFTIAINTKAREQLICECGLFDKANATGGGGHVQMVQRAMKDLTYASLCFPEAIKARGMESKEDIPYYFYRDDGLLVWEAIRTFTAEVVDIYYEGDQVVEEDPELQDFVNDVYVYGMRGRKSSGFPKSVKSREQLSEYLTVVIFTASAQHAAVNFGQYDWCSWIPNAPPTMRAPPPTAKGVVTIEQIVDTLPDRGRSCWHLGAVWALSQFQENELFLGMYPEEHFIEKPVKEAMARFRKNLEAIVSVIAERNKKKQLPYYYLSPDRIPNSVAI
The experiment in a line: Inhibition of recombinant human 5-lipoxygenase expressed in Escherichia coli BL21 using arachidonic acid as substrate preincubated for 5 to 10 mins with compound followed by substrate addition and measured after 10 mins by HPLC analysis.

Experiment [3] in a line: Antioxidant activity assessed as quercetin equivalent of Ferric ion TPTZ reducing activity incubated for 6 mins by FRAP assay. Format: functional.
For experiment [4], the target named is T3, Polyunsaturated fatty acid lipoxygenase ALOX15 (Homo sapiens) (UniProt P16050).
T3 sequence (whole entry): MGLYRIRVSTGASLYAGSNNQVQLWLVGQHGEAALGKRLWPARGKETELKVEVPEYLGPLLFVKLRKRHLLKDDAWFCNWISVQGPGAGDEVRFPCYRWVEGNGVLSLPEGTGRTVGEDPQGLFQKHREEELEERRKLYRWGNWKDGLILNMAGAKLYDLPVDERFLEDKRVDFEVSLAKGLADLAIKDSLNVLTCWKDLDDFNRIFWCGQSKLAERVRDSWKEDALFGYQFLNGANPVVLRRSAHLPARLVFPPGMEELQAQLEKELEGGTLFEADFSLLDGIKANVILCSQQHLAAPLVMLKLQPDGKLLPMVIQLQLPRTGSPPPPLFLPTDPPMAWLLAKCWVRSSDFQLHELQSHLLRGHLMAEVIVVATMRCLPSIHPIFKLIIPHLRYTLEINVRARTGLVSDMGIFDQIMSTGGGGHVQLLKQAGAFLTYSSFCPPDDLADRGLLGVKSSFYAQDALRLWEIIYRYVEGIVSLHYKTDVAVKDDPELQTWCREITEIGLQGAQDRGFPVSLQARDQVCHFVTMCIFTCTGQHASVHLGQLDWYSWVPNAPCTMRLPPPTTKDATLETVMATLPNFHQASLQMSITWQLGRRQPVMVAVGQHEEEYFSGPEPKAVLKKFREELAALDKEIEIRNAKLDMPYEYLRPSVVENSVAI
The experiment in a line: Inhibition of 15-lipoxygenase in human PMNL cells using arachidonic acid as substrate assessed as residual activity at 10 uM preincubated with compound for 15 mins followed by A23187 and substrate addition and measured after 10 mins by HPLC analysis relative to control. Format: cell-based. Particulars: time 25.0 min.

Experiment [5] is described as follows: Antioxidant activity assessed as DPPH radical scavenging activity by ultraviolet spectrophotometric analysis. Format: functional.
The target in experiment [6] is T2, Polyunsaturated fatty acid 5-lipoxygenase. The experiment in a line: Inhibition of 5-lipoxygenase in human PMNL cells using arachidonic acid as substrate preincubated with compound for 15 mins followed by A23187 and substrate addition and measured after 10 mins by HPLC analysis. The format is cell-based.
In experiment [7] the test system is Mus musculus. The experiment in a line: Anti-inflammatory activity against OVA-sensitized isolated perfused lung mouse model assessed as reduction in Ach-induced bronchoconstriction at 0.1 to 1 mg/kg, ip preadministered with compound for 30 mins followed by OVA challenge and measured 24 hrs after last aerosolized OVA challenge. Format: functional, organism-based. Particulars: dose 0.1-1 mg/kg, time 24.5 hrs.

In experiment [8] the test system is Mus musculus. The experiment in a line: Antiinflammatory activity in carrageenan induced mouse paw edema model assessed as reduction in hind paw swelling at 0.1 to 10 mg/kg, ip preadministered with compound for 30 mins followed by carrageenan administration and measured upto 72 hrs by hydroplethismometer. The format is functional, organism-based. Particulars: dose 0.1-10 mg/kg, time <= 72.5 hrs.

Experiment [9] concerns Mus musculus. The experiment in a line: Antiinflammatory activity against zymosan-induced air pouch mouse model assessed as inhibition of cell migration at 0.1 mg/kg, ip preadministered with compound for 30 mins followed by sterile air injection three days once for 6 days and measured 4 hrs after zymosan administration by optical microscopic analysis. Particulars: time 148.5 hrs. Format: functional, organism-based.

In experiment [10] the target is T2, Polyunsaturated fatty acid 5-lipoxygenase. The experiment can be described thus: Inhibition of 5-LOX in human PMNL cells. The format is cell-based.
Experiment [11] addresses T1, Polyunsaturated fatty acid lipoxygenase ALOX12 (Homo sapiens). The experiment can be described thus: Inhibition of 12-lipoxygenase in human PMNL cells using arachidonic acid as substrate assessed as residual activity at 1 uM preincubated with compound for 15 mins followed by A23187 and substrate addition and measured after 10 mins by HPLC analysis relative to control. The format is cell-based. Particulars: time 25.0 min.

Experiment [12] concerns the target T3, Polyunsaturated fatty acid lipoxygenase ALOX15 (Homo sapiens). The experiment in a line: Inhibition of 15-lipoxygenase in human PMNL cells using arachidonic acid as substrate assessed as residual activity at 1 uM preincubated with compound for 15 mins followed by A23187 and substrate addition and measured after 10 mins by HPLC analysis relative to control. Format: cell-based. Particulars: time 25.0 min.

With `Oc1ccc(-c2ccc(Cl)cc2)cc1O`, the Activity in [1] is 74.9%; in experiment [4], 91.4%. Besides, the IC50 in [2] stood at 0.02 µM; in experiment [6], 0.26 µM. For the same compound, the concentration for a half-maximal effect (EC50) in experiment [3] is 560 µM; in [5], 64 µM.

`Oc1ccc(-c2cccc3c2oc2ccccc23)cc1O`: the results for the Activity in [1] and in [4] were 69.5% and 70.3%, respectively. Also, the half-inhibitory concentration (IC50) in experiment [2] came to 0.076 µM; in [6] it was 0.21 µM. Also, the outcome with Mus musculus [7], with Mus musculus [8] and with Mus musculus [9] was Active. The results for the EC50 in experiment [3] and in experiment [5] were 3080 µM and 54 µM, respectively.

On to `Oc1ccc(-c2ccccc2)cc1O`, for which the Activity was determined as 86.1% in experiment [1] and 112% in experiment [4]. The values for the concentration for half-maximal inhibition (IC50) in [2] and in experiment [6] were 0.05 µM and 0.47 µM, respectively. In addition, the values for the EC50 in experiment [3] and in [5] were 190 µM and 46 µM, respectively.

In turn, `CCCCCCCCCCCCc1c(O)c(O)cc(OC)c1OC` showed a concentration for half-maximal inhibition (IC50) in experiment [10] of 0.03 µM.

On to `Oc1ccc(-c2ccc3c(c2)OCCO3)cc1O`, for which the Activity in experiment [1] amounted to 89.6%; in experiment [11] it was 74%; in experiment [4], 84.8%. Also, the IC50 is 0.04 µM in experiment [2] and 0.24 µM in experiment [6]. In addition, the EC50 is 70 µM in experiment [3] and 71 µM in experiment [5].

On to `CCOc1ccc2ccccc2c1-c1ccc(O)c(O)c1`, for which the Activity in experiment [1] was 88.8%; in experiment [4], 82.8%. For the same compound, the IC50 was 0.01 µM in experiment [2] and 0.27 µM in [6]. Further, the EC50 in [3] worked out at 970 µM; in [5] it was 37 µM.

Consider `Oc1ccc(-c2cccc3c2Sc2ccccc2S3)cc1O`, for which the results for the IC50 in [2] and in experiment [6] were 0.008 µM and 0.23 µM, respectively.

`Oc1ccc(-c2cc3ccccc3o2)cc1O`: the Activity came out at 80.6% in experiment [1] and 71.1% in experiment [4]. Further, the figures for the IC50 in experiment [2] and in [6] were 0.03 µM and 1.11 µM, respectively. Moreover, the half-maximal effective concentration (EC50) in experiment [3] turned out to be 460 µM; in experiment [5], 49 µM.

On to `Oc1ccc(-c2c3ccccc3cc3ccccc23)cc1O`, for which the values for the Activity in experiment [1] and in [12] were 49.4% and 114%, respectively. Moreover, the IC50 in experiment [2] came out at 0.01 µM; in [6], 2.34 µM. The EC50 in [3] was 890 µM; in experiment [5], 51 µM.

With `CC(c1cc2ccccc2s1)N(O)C(N)=O` (stereo not drawn), the result with Mus musculus [7] was Active.

For `Oc1ccc(-c2cccc(Cl)c2)cc1O`, the Activity came to 86.6% in experiment [1] and 84.1% in experiment [4]. Further, the 50% inhibitory concentration (IC50) in experiment [2] came out at 0.02 µM; in [6], 0.21 µM. Besides, the EC50 in experiment [3] came out at 610 µM; in experiment [5] it was 74 µM.

As for `Oc1cc(O)c(O)c(CC2CCC3CCCCC3C2)c1O` (stereo not drawn), in experiment [10], the IC50 came to 4.4 µM.

`COC1=CC(=O)C(O)=C(C[C@]2(C)CC[C@@]3(C)C(C)=CCC[C@@H]3[C@@H]2C)C1=O` gave an IC50 in experiment [10] of 10 µM.

Take `Oc1ccc(-c2cccc3c2sc2ccccc23)cc1O`: the Activity in experiment [1] is 71.5%; in experiment [4], 70.5%. For the same compound, the IC50 in [2] amounted to 0.007 µM; in [6], 0.25 µM. For the same compound, the EC50 in experiment [3] came out at 1380 µM; in experiment [5] it was 82 µM.

Consider `Oc1ccc(-c2ccc3ccccc3c2)cc1O`, for which the Activity was 93.8% in [1] and 57.2% in [4]. Moreover, the values for the IC50 in experiment [2] and in experiment [6] were 0.007 µM and 0.32 µM, respectively. Besides, the EC50 in experiment [3] worked out at 370 µM; in [5], 53 µM.

The compound `O=C1C=C(O)C(=O)C(CC2CCC3CCCCC3C2)=C1O` (stereo not drawn) yielded an IC50 in experiment [10] of 10 µM.

For `Oc1ccc(-c2ccc(O)c(O)c2)cc1`, the Activity amounted to 75% in experiment [1] and 80.8% in experiment [4]. The figures for the half-inhibitory concentration (IC50) in experiment [2] and in [6] were 0.21 µM and 1.33 µM, respectively. In addition, the concentration giving a half-maximal response (EC50) came to 650 µM in [3] and 275 µM in [5].

Compound `CCCCCCCCCCCC1=C(O)C(=O)C=C(O)C1=O` [EMBELIN] yielded a concentration for half-maximal inhibition (IC50) in [10] of 1.5 µM.
